Assay results: EPA's ToxRefDB 2

Assays:
mouse [1] = settings: Subchronic oral toxicity in rodents, b6c3f1, Feed, dose end: 14 week, group: systemic
mouse [2] = settings: Carcinogenicity; b6c3f1; Oral; Feed; dose end: 105 week; group: systemic; systemic / in life observation / body weight / body weight + systemic / pathology microscopic / kidney / mineralization + systemic / …
rat [3] = settings: Carcinogenicity, fischer, Oral, Feed, dose end: 105 week, group: systemic
dog = settings: Chronic toxicity, beagle, Oral, Feed, dose end: 1 year, group: systemic
mouse [4] = settings: Carcinogenicity, b6c3f1, Oral, Feed, dose end: 24 month, group: systemic
rat [5] = settings: Combined chronic toxicity/carcinogenicity; fischer; Oral; Feed; dose end: 2 year; group: systemic; systemic / pathology microscopic / kidney / dilatation + systemic / pathology microscopic / kidney / hyperplasia + systemic / pathology …
mouse [6] = settings: Subchronic oral toxicity in rodents, b6c3f1, Feed, dose end: 13 week, group: systemic
rat [7] = settings: Subchronic oral toxicity in rodents, fischer, Feed, dose end: 13 week, group: systemic
rabbit = settings: Sub-acute repeat dose toxicity; Oral; Gavage/Intubation; dose end: 4 day; group: systemic; systemic / hematology / erythrocyte (rbc) count differential / erythrocyte (rbc) + systemic / hematology / hematocrit (hct) / hematocrit (…
primate [8] = settings: Sub-acute repeat dose toxicity; Oral; Gavage/Intubation; dose end: 10 day; group: systemic; systemic / clinical chemistry / [other] / [other] + systemic / clinical chemistry / apolipoprotein a1 / apolipoprotein a1 + systemic / …
rat [9] = settings: Sub-acute repeat dose toxicity; Oral; Gavage/Intubation; dose end: 10 day; group: systemic; systemic / hematology / erythrocyte (rbc) count differential / erythrocyte (rbc) + systemic / hematology / hematocrit (hct) / hematocrit (…
rat [10] = settings: Sub-acute repeat dose toxicity, Oral, Gavage/Intubation, dose end: 34 day, group: systemic
primate [11] = settings: Sub-acute repeat dose toxicity, Oral, Gavage/Intubation, dose end: 28 day, group: systemic
[12] = systemic / organ weight / liver / absolute + systemic / organ weight / liver / relative to body weight + systemic / pathology microscopic / …
[13] = systemic / pathology microscopic / kidney / hyperplasia + systemic / pathology microscopic / liver / hyperplasia + systemic / pathology …
[14] = systemic / clinical chemistry / alkaline phosphatase (alp/alk) / alkaline phosphatase (alp/alk) + systemic / pathology microscopic / kidney…
[15] = systemic / organ weight / heart / relative to body weight + systemic / organ weight / kidney / absolute + systemic / organ weight / kidney…
[16] = systemic / organ weight / brain / relative to body weight + systemic / organ weight / kidney / absolute
[17] = systemic / organ weight / brain / relative to body weight + systemic / organ weight / kidney / absolute + systemic / organ weight / kidney…
[18] = systemic / clinical chemistry / alanine aminotransferase (alt/sgpt) / alanine aminotransferase (alt/sgpt) + systemic / clinical chemistry / …
[19] = systemic / clinical chemistry / [other] / [other] + systemic / clinical chemistry / globulins / globulins + systemic / clinical chemistry / …
[20] = systemic / in life observation / body weight / body weight + systemic / clinical chemistry / [other] / [other] + systemic / clinical …
[21] = systemic / in life observation / clinical signs / pulse/pressure + systemic / clinical chemistry / albumin / albumin + systemic / hematology…
[22] = systemic / in life observation / clinical signs / pulse/pressure + systemic / in life observation / clinical signs / arrhythmia + systemic…

## O=C(c1ccccc1)c1ccccc1 [Benzophenone]
Mouse [1]; systemic / clinical chemistry / bile acids / bile acids + systemic / clinical chemistry / sorbitol dehydrogenase / sorbitol dehydrogenase + …
  LOAEL: 404 mg/kg/day
Mouse [1]; [12]
  LEL: 200 mg/kg/day
  NEL: < 200 mg/kg/day
Mouse [2]
  LEL: 35 mg/kg/day
  LOAEL: 70 mg/kg/day
  NEL: < 35 mg/kg/day
Rat [3]; systemic / in life observation / body weight / body weight + systemic / pathology microscopic / kidney / hyperplasia + systemic / pathology …
  LOAEL: 30 mg/kg/day
Rat [3]; [13]
  LEL: 15 mg/kg/day
  NEL: < 15 mg/kg/day

## Cc1ccn2nc(S(=O)(=O)Nc3c(F)cccc3F)nc2n1 [Flumetsulam]
dog; [14]
  LOAEL: 500 mg/kg/day
  NEL: 20 mg/kg/day
  NOAEL: 100 mg/kg/day
dog; systemic / organ weight / pituitary gland / relative to body weight
  LEL: 100 mg/kg/day
Mouse [4]; systemic / organ weight / heart / relative to body weight
  NEL: 500 mg/kg/day
Mouse [4]; [15]
  LEL: 1000 mg/kg/day
  LOAEL: > 1000 mg/kg/day
  NOAEL: ≥ 1000 mg/kg/day
Rat [5]
  LEL: 1000 mg/kg/day
  LOAEL: 1000 mg/kg/day
  NEL: 500 mg/kg/day
  NOAEL: 500 mg/kg/day
Mouse [6]; [16]
  NEL: 1000 mg/kg/day
  NOAEL: 1000 mg/kg/day
Mouse [6]; [17]
  LEL: 5000 mg/kg/day
  LOAEL: 5000 mg/kg/day
Rat [7]; [18]
  LOAEL: 1000 mg/kg/day
  NOAEL: 250 mg/kg/day
Rat [7]; systemic / hematology / erythrocyte (rbc) count differential / erythrocyte (rbc) + systemic / hematology / hemoglobin (hgb) / hemoglobin (…
  NEL: 2500 mg/kg/day

## CC(C)c1nnc2ccc(-c3ocnc3-c3cc(F)ccc3F)cn12
rabbit
  LEL: 40 mg/kg/day
  LOAEL: > 80 mg/kg/day
  NEL: 20 mg/kg/day
  NOAEL: ≥ 80 mg/kg/day
Primate [8]
  LEL: 1000 mg/kg/day
  LOAEL: > 1000 mg/kg/day
  NEL: 300 mg/kg/day
  NOAEL: ≥ 1000 mg/kg/day
Rat [9]
  LOAEL: > 2000 mg/kg/day
  NEL: < 250 mg/kg/day
  NOAEL: ≥ 2000 mg/kg/day
Rat [10]; [19]
  LEL: 100 mg/kg/day
  NEL: < 100 mg/kg/day
Rat [10]; [20]
  LOAEL: > 2000 mg/kg/day
  NOAEL: ≥ 2000 mg/kg/day
Primate [11]; [21]
  LEL: 30 mg/kg/day
  NEL: < 30 mg/kg/day
Primate [11]; [22]
  LOAEL: > 500 mg/kg/day
  NOAEL: ≥ 500 mg/kg/day
